Where two headings read alike, the source gives them in different places.
Columns and labels:
[1] = tested on: P. falciparum K13 mutant parasites SP045 and SP060; assay: Growth, Resistance, and Recovery Assay (GRRA), ring-stage survival dose-response; format: cell-based, Plasmodium falciparum; conditions: read-out: GRRA50
Experimental: These isolates carry the validated R561H Kelch 13 propeller domain mutation associated with delayed parasite clearance in East Africa[24],[25]. Using the 6-hour GRRA[23], all strains were thawed, frozen, and cultured under standard conditions at 5% hematocrit. Samples parasitemia was measured by flow cytometry. Parasite cultures that were predominantly segmented schizonts were synchronized using a single Percoll layer method. Cultures that met quality control requirements of ≥70% early ring stage and ≥1% parasitemia were adjusted to 0.25% parasitemia at 2% hematocrit. […] The GRRA50 implements 11 RSA experiments to generate a dose-response curve for each parasite line per drug. Master mixes of samples were aliquoted into 2 technical replicates of 275 µL each in 96 well plates (2 treated each condition, 2 untreated). At 6 h post-exposure, 200 µL of media was removed from the wells and replaced with 200 µL of incomplete media and spun for 3 min at 800 g to rinse. The rinse was repeated a total of 3 times, after which 200 µL complete media was added back to the wells. At 120 h post-treatment, thin microscopy smears were made using 2 µL of culture for each sample and 20 µL of culture was transferred to PCR strips and stored at −80 °C until qPCR quantification. A standard curve of known parasitemia was generated using the NF54 parasite line for each qPCR quantification for conversion from Cycle threshold (Ct) to parasitemia and comparison between qPCR experiments. Replicate viability was calculated according to the GRRA method. Each individual reaction mixture and cycling conditions were set to previously used methods. Ct was calculated using AB1 SDA 2.4.1. software. […] We find that commonly reported thresholds (cutoffs) for resistance (e.g., 1% survival in traditional RSA) may not be broadly applicable, especially with lower thresholds subject to potential artifacts due to markedly low survival rates of ART-sensitive and low-level ART-resistant parasites. Regular RSA relies on a single drug concentration, 700 nM. To gain a more fine-scale quantification to compare drug susceptibilities with relevance to therapeutic success and failure, we developed the GRRA50 to generate full dose-response curves for precise quantitative comparisons.

[2] = tested on: P. falciparum Dd2, DR1 and DR4; assay: SYBR Green 72 h drug susceptibility assay against ART-resistant clones; format: cell-based, Plasmodium falciparum
Experimental: Drug susceptibility assay against ART-resistant P. falciparum clones was performed using a SYBR Green-based assay[44],[74]. Synchronized ring stage parasites were cultured for 72 h in the presence of the test drug. The assay was performed in 96-well plates at 2% hematocrit and 0.5% starting parasitemia. Each experiment was conducted in triplicate and repeated with three biological replicates. Parasite growth at 72 h was quantified via SYBR Green I staining. The obtained counts were plotted against the logarithm of the compound concentration, and a curve was fitted with non-linear regression (sigmoidal dose-response/variable slope equation) to determine IC50 (half-maximal inhibitory concentration) values. The data was analyzed using GraphPad Prism software 8.0.

[3] = tested on: Salmonella typhimurium TA98 and TA100; assay: Ames assay; format: cell-based; conditions: 10 µM; TA98 and TA100, with and without S9 activation
Experimental: Mutagenicity was assessed using the Ames assay[54] (EBPI, Ontario, Canada) against S. typhimurium TA100 and TA98, with and without S9 activation. The tester strain S. typhimurium (TA100 and TA98) cultures were inoculated from the lyophilized pellets and grown in nutrient broth provided by EBPI. Each inoculated vial (5 mL volume with antibiotics) was placed overnight in the incubator at 37 °C. The positive controls for the assay were 1.0 µg/µL 2-aminoanthracene (2-AA) for incubations with the S9 mix and 5 µg/mL sodium azide (NaN3, used for TA100) and 300 µg/mL 2-nitrofluorene (2NF, used for TA98) for incubations without the S9 mix. […] An aliquot (0.2 mL) of the mixture was then added to each well of a 96-well plate. The 96-well plates were covered, sealed in zip-lock bags, and incubated for 5 days at 37 °C. Plates were scored visually, and the positive wells against background mutations were statistically analyzed.

[4] = maximum tolerated dose (MTD) study, single oral dose; format: in vivo, Sprague Dawley rats; conditions: oral gavage, male and female rats
Experimental: In vivo toxicology and TK studies in rats were performed at SRI International, using the well-established methods[83]–[85]. Rats were housed in microisolator cages with hardwood chip bedding (Sani-Chips; Envigo Teklad) and maintained on a 12 h light/dark cycle. Environmental conditions were controlled at 20–26 °C (68–79 °F) with 30–70% relative humidity. […] Male and female Sprague Dawley outbred rats were randomly assigned to treatment and control groups using a simple randomization procedure to ensure a balanced distribution of baseline weights across all cohorts. […] For TK studies, blood was collected from animals at 6 time points post dose on Day 1 (0.5, 1, 2, 4, 8, and 24 h) and on Day 7 (0.5, 2, 8, 24, 48, and 96 h). Drug levels were determined in collected plasma samples using bioanalytical method developed at SRI. The plasma drug level data were analyzed using Phoenix WinNonlin (version 8.3) software to perform noncompartmental data analysis.

[5] = design: method as in reviewer #3 remark; conditions: in humans; ref reviewer #3 remark; cited from earlier work
[6] = cited from earlier work

| Structure (SMILES) | IC50 ([1]; SP045 (K13 V555A, ART-S)) | IC50 ([1]; SP060 (K13 R561H, ART-R)) | IC50 ([2]; DR1 (ART-R)) | IC50 ([2]; Dd2) | Ames test result [3] | single dose MTD [4] | T1/2 [5] | T1/2 ([6]; healthy mice, ref PMID: 23292347) | t1/2 ([6]; mice plasma) |
| --- | --- | --- | --- | --- | --- | --- | --- | --- | --- |
| O=c1c2ccc(Oc3ccc(OC(F)(F)F)cc3)cc2[nH]c2cc(Cl)cc(F)c12 [T111] | 0.78 nM | 0.87 nM | 0.11 nM | 0.028 nM | negative | greater than 400 mg/kg | – | – | – |
| O=C1C(O)=C([C@H]2CC[C@H](c3ccc(Cl)cc3)CC2)C(=O)c2ccccc21 [ATV, atovaquone] | – | – | – | – | – | – | 120 to 140 h | about 13 h | ~ 13 h |

Source: paper PMC13168289, “Potent acridone antimalarial against all three life stages of Plasmodium” (Nature Communications, 2026)
